Laboratory results published in patent US6838477B2, “Lactacystin analogs” (President and Fellows of Harvard College, priority 1995, dated 2005).

What was measured:
Papain = molecular target: T1, Papain (Carica papaya, UniProt P00784); assay: Selectivity of protease inhibition: papain; type: biochemical; details: concentration not given
T1 sequence (P00784 134-345): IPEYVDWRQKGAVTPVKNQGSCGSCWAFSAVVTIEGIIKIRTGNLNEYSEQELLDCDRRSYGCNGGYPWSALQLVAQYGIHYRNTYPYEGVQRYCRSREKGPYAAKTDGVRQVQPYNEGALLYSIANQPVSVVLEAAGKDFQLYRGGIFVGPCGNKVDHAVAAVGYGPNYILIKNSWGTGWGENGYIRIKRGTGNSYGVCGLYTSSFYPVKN

[1] = molecular target: T2, 20S proteasome chymotrypsin-like activity (Bos taurus, UniProt Q32KL2); assay: Kinetics of inhibition of 20S proteasome chymotrypsin-like activity (Suc-LLVY-AMC); type: biochemical, bovine
T2 construct: from tissue; host or cells: bovine brain
Method: Experiments involving the proteasome were performed as follows: 20S proteasome (˜5 ng/μl) in 10 mM Tris-HCl, pH 7.5, 1 mM EDTA was incubated at 25° C. in the presence of lactacystin or lactacystin analogs in DMSO or MeOH [not exceeding 5% (v/v)]. Aliquots for fluorescence assay were removed at various times following addition of compound and diluted in 10 mM Tris-HCl, pH 7.5, 1 mM EDTA containing fluorogenic peptide substrates (100 μM final). Suc-LLVY-AMC, Cbz-GGR-βNA and […] (AMC=7-amido-4-methylcoumarin; βNA=β-naphthylamide) were used to assay for the chymotrypsin-like, trypsin-like and peptidylglutamyl-peptide hydrolyzing activities, respectively.
Fluorescent emission at 460 nm with excitation at 380 nm was measured for AMC-containing substrates, and emission at 410 nm with excitation at 335 nm was measured for βNA-containing substrates. The fluorescence assays were conducted at 25° C., each experiment was performed at least three times, and values represent mean±standard deviation.
The reversibility of the inhibitory effects was assessed by measuring residual peptidase activity after removal of excess inhibitor by extensive serial dilution/ultrafiltration.

IκB-α = assay: TNF-α dependent degradation of IκB-α in Hela cells (immunoblot); type: cell-based, human; details: 5 μM, 1 h pretreatment, 1,000 U/ml TNF-α
Method: Hela cells were plated onto 6-well plates in DME plus 10% fetal calf serum (3 mls/well). Cells were then pretreated with 0.125% DMSO 40 μM […] (carbobenzoxyl-leucinyl-leucinyl-leucinal-H)(40 μM, lanes 103), or 5 μM β-lactone for one hour, followed by treatment with 1,000 U/ml TNF-α or phosphate buffered saline (PBS). Cells were harvested after 0 min, 20 min, or 40 min of further incubation at 37° C. Cells were then lysed in buffer containing NP-40 and protease inhibitors, and the proteins separated on a 10% SDS-polyacrylamide gel. The proteins were then transferred to nitrocellulose and probed with antibodies against the C-terminal 20 amino acids of human IκB-α.

Trypsin = molecular target: T3, Trypsin (Bos taurus, UniProt P00760); assay: Selectivity of protease inhibition: trypsin; type: biochemical; details: concentration not given
T3 construct: gene PRSS1
T3 sequence (P00760 24-246): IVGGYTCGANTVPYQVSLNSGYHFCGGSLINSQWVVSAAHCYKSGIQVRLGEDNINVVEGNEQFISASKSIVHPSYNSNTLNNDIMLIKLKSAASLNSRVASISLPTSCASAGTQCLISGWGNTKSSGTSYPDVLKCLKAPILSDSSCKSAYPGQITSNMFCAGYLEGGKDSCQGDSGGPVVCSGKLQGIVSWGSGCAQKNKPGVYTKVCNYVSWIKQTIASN

CC(C)[C@H](O)[C@@]12NC(=O)[C@H](C)[C@@H]1OC2=O [β-Lactone, clasto-lactacystin β-lactone]
inhibition of papain activity (Papain): do not inhibit | κassoc = κobs/[I], Chymotrypsin-like activity (Suc-LLVY-AMC) ([1]; compound 1 μM, 25° C.): 3059 ± 478 s^−1M^−1 | chymotrypsin-like activity inhibited faster than by lactacystin ([1]; relative to lactacystin): 15-20 times | reversibility of inhibition of chymotrypsin-like activity ([1]; residual activity after removal of excess inhibitor by serial dilution/ultrafiltration): irreversibly | degradation of IκB after TNF induction (IκB-α): blocks degradation | phosphorylated form of IκB (IκB-α): stabilizes the phosphorylated form | inhibition of trypsin activity (Trypsin): do not inhibit
